Test results published in patent US10391150B2, “Treatments for migraine and related disorders” (The University of Chicago, priority 2011, dated 2019).
Entries after “also recorded” stand apart in the source; their conditions may differ.

B1: Interferon-gamma (protein, listed as Homo sapiens)
chain: MKYTSYILAFQLCIVLGSLGCYCQDPYVKEAENLKKYFNAGHSDVADNGTLFLGILKNWKEESDRKIMQSQIVSFYFKLFKNFKDDQSIQKSVETIKEDMNVKFFNSNKKKRDDFEKLTNYSVTDLNVQRKAIHELIQVMAELSPAAKTGKRKRSQMLFRGRRASQ

Assays:
[1] = test system: spreading depression (SD) in hippocampal slice cultures; test: Spreading depression (SD) threshold / susceptibility in hippocampal slice cultures; assay type: cell-based, rat
From the text: FIGS. 2A-2E. […] (FIG. 2A) Experiments begin with determination of the current needed to maximize standard CA3 area field potential responses. Half-maximal intensity is then used to elicit CA3 area evoked field potentials from dentate gyrus bipolar electrical stimulation. This documents the normalcy of evoked synaptic responses between preparations. If a slice's field excitatory post synaptic potentials are not at least 3 mV, slices are discarded. Next, field potential trains (i) are noted to verify that preparations are healthy enough to follow 10 Hz stimulation (e.g., amplitudes of vertical deviations in fast potential records are similar) and the current needed to trigger SD (ii) is registered (Pusic and Kraig, 2010).
(FIG. 8a) Exemplary CA3 area evoked field potential. Experiments begin with establishment of the current intensity needed to evoke maximal field potential responses; stimuli of half-maximal intensity were then used to elicit subsequent field potentials. Only those cultures with CA3 pyramidal neuron post-synaptic responses of at least 3 mV were used for experiments. (FIG. 8b) CA3 response to dentate gyrus bipolar stimulation (10 pulses at 10 Hz, 500 μA) was used to elicit a spreading depression (SD), as shown in (FIG. 8c). (FIG. 8c) The spreading depression (SD) shown here was induced by the stimulation/response (arrow) shown in (FIG. 8b). […] Comparisons between groups made via Student's t-test.
The inventors induced SD trans-synaptically in rat HSC using electrical stimuli (100 μs pulses @ 10 Hz for 1 s) ranging from 1 to 10,000 nC in order to determine SD threshold in sham and experimental groups (Pusic et al., 2011). Results were based on n≥3-6/group. […] This insulin dose approximates the pharmacological levels seen in humans treated with nasal insulin.
Slice cultures were prepared and maintained as previously described (Mitchell et al., 2010a,). After 18 days in vitro (DIV), slice cultures were transferred to serum-free media that included additional calcium and magnesium. Cultures were screened at 21 DIV to ensure no pyramidal neuron death was present. Standard electrophysiological recordings were performed by placing a slice culture insert in a PDMI recording chamber with controlled temperature and pH (FIG. 1). The recording chamber was aerated with 5% CO2-balance air at 36° C. and media flowing at 1.2 mL/min or was held static around the slice culture insert. A recording electrode was placed at the CA3 pyramidal cell layer and a stimulating electrode was placed at the surface of the dentate gyrus. Recordings were initiated prior to placing the stimulating electrode on the culture to ensure no spreading depression was triggered as a result.
Studies began with determination of the current needed to maximize standard CA3 area field potential responses. This documented the normalcy of evoked synaptic responses between preparations. If a slice's field EPSPs were not at least 3-4 mV, it was discarded.
Next, trans-synaptically evoked SD was determined. Here, the inventors stimulated slices via the dentate gyrus with 100 μs pulses delivered at 10 Hz for 1 sec every 1-2 minutes at increasing μA current intensities until SD occurred.
Slice cultures are prepared, maintained, and induced to fire SD as previously described using trans-synaptic excitation of CA3, where SD is initiated (FIG. 4) (Kunkler et al., 2005; Pusic et al., 2011).

[2] = test system: oxidative stress (OS) in hippocampal slice cultures; test: Oxidative stress (OS) by CellROX fluorescence in hippocampal slice cultures (CA3); assay type: cell-based, rat
Method: FIGS. 4A-4F Oxidative stress (OS) from SD and its reduction by IGF-1. (FIG. 4A) Normal cytoarchitecture of a hippocampal slice culture showing pyramidal neuron areas of CA1, dentate gyrus (DG), and the imaging zone for the inventors' work here (dotted line), CA3. (FIG. 4B) OS was measured using CellROX, a fixable fluorescent marker from Invitrogen. […] (FIG. 4D) This reduction versus control SD was significant (p<0.02; n=4 & 5). (FIG. 4E) CellROX can be used to measure relative OS in specific brain cell types.
FIGS. 9a-9f IGF-1 decreased oxidative stress from spreading depression. (FIG. 9a) NeuN immunohistochemical labeling of a hippocampal slice culture, for cytoarchitectural reference and to show the CA3 area of interest (dotted line box) used for quantification of oxidative stress (OS) via CellROX™ fluorescence intensity. (FIGS. 9b-c) Representative CellROX™-labeled hippocampal slices exposed to SD (FIG. 9b) and to 3-day IGF-1 incubation followed by spreading depression (SD) (FIG. 9c). Dotted line boxes illustrate CA3 areas of interest used for relative OS quantifications. […] Again, seven day treatments consisted of exposing cultures to IGF-1 for 12 hours a day for seven days. Note: IGF-1 exposure was continued for the additional 24 hour CellROX™ incubation. Scale bars=400 μm (a) and 200 μm (b and c). Comparisons between groups were made via ANOVA plus Holm-Sidak post hoc testing.
FIGS. 11a-11g IGF-1 decreased CA3 oxidative stress (OS) and its related hyperexcitability. […] Relative evoked excitability was determined as a sum of responses seen (e.g., responses of “2” and a “3” yielded an overall excitability score of five). […] (FIGS. 11d-e) Exemplary images of control (FIG. 11d) slice culture OS compared to increased slice OS induced by exposure to menadione (FIG. 11e). Calibration bar, 200 Dotted boxes indicate CA3 areas of interest used for relative OS quantifications (f and g).
Oxidative stress from SD preferentially rises in astrocytes and microglia, with the latter effect mitigated by IGF-1 (FIG. 13). The inventors have recently shown that spreading depression (SD), the most likely cause of migraine aura and perhaps migraine (Lauritzen and Kraig, 2005), occurs with increased oxidative stress (OS) and that OS, in turn, increases SD susceptibility (Grinberg et al., 2012). Reactive oxygen and nitrogen species that cause OS have both autocrine and paracrine signaling capacities that can affect SD susceptibility by altering excitability (Kishida and Klann, 2007). Accordingly, the inventors looked for the cellular origin of OS from SD. Here the inventors used hippocampal slice cultures (HSC) to probe for cell-specific changes in OS from SD. SD was induced trans-synaptically in rat HSCs using bipolar electrical stimuli at the dentate gyrus (Pusic et al., 2011). Six SDs were induced every 7-9 min over an hr, followed by 24 hr incubation in CellROX™, a fixable fluorogenic probe for measuring OS (Grinberg et al., 2012). HSCs were then fixed in 10% buffered formalin phosphate. Other fixatives (PLP, 4% paraformaldehyde) prevented detection of OS change. Tissue was then labeled for neurons (anti-NeuN), oligodendrocytes (anti-RIP), astrocytes (anti-GFAP), or for microglia (isolectin GS-IB4).

Molecule | increase of SD threshold compared to control ([1]; 3-day exposure to IGF-1) [fold] | increase of SD threshold compared to control ([1]; 7-day phasic exposure to IGF-1 (12 hours a day)) [fold] | increase of SD threshold compared to control ([1]; acute (15-30 min) exposure to IGF-1) [fold] | relative SD threshold levels ([1]; coincubation with ascorbate and IGF-1 versus IGF-1 alone) | baseline slice culture OS versus control ([2]; 3-day IGF-1 alone) | decrease in OS from SD ([2]; 3-day exposure to IGF-1) [%] | reduction of baseline OS levels compared with controls ([2]; 7-day exposure to IGF-1 alone) [%] | decrease in OS from SD ([2]; 7 days IGF-1, phasic) [%] | increased OS induced by SD ([2]; IGF-1 (40 ng/mL) for 3 days prior to SD) | increased OS induced by SD ([2]; IGF-1 acutely) | increased OS induced by SD ([2]; IGF-1 for 7 days prior to SD, 12 hours a day) | baseline slice culture OS versus control ([2]; acute IGF-1 exposure alone) | decrease in OS from SD ([2]; acute treatment with IGF-1) [%] | OS induced by menadione versus control ([2]; menadione exposure, without or with acute IGF-1) | OS induced by menadione versus control ([2]; pretreatment with IGF-1 for 3 days) | susceptibility to SD ([1]; IFN-γ 500 U/mL, at 1 day) | OS ([2]; transient (pulsed) IFN-γ 500 U/mL × 12 hours, assessed seven days later)
Insulin-like growth factor 1 [IGF-1] | 75 | 22 | 24 | 1.00±0.31 | significantly reduce baseline OS; also recorded: reduced slice culture OS | 30 | 26 | 73 | reduction in OS; also recorded: abrogated | abrogated | significantly reduced | did not reduced slice culture OS | 20 | abrogated; also recorded: reduced OS from menadione | abrogated; also recorded: reduced menadione-induced significant increase in OS | – | –
B1 | – | – | – | – | – | – | – | – | – | – | – | – | – | – | – | significantly increased susceptibility to SD | OS is reduced; also recorded: similarly reduced
